The source of these data is patent publication US7354928B2, “Small molecule inhibitors targeted at Bcl-2” (The Regents of the University of Michigan, priority 2001, dated 2008).

Where two headings read alike, the source gives them in different places. Some results are limits rather than exact numbers.

The subject of one series is HL-60 cells. In words: Cell viability, trypan blue exclusion, HL-60. Format: cell-based. The settings on record: Homo sapiens; HL-60, trypan blue exclusion, 24 hours; read-out: IC50, inhibition of cell viability. As for the experimental part:
FIG. 3 illustrated the effects of Compound 6 on cell viability. Cells are plated in 24-well plates, incubated with the compound at appropriate concentrations for […]. Cell viability is determined by trypan blue exclusion with hemocytometer. Percent of viable cells, as compared with untreated cells, is plotted against drug concentration.
First, in some embodiments, the trypan blue exclusion method was used to determine the effect of an inhibitor on cell viability in which cells were treated with the inhibitor for 24 hours. Second, in some other embodiments, the MTT assay was used to determine the activity of an inhibitor on cell proliferation where cells were treated for four days. All the 7 active compounds were tested using the HL-60 cell line that expresses the highest level of Bcl-2 protein among all the cancer cell lines examined.
Cells and Reagents. Human breast cell lines (T47D, MDA-231, MDA-453), and human Leukemia cells HL-60 were obtained from the American Type Culture Collection (ATCC). All tumor cell lines were grown and maintained in RPMI 1640 medium containing 10% FBS, except MDA-MB-231, which used Dulbecco's modified Eagle's medium as basal medium. Cultures were maintained in a humidified incubator at 37° C. and 5% CO2.
Cell viability was determined by the trypan blue assay. […] Trypan blue dye was added 24 hours later and the percentage of viable cells were determined.

In a further series the target is T1, GST-fused Bcl-2 protein (Homo sapiens, UniProt P10415).
T1 construct: purchased Santa Cruz Biotechnology (Santa Cruz, Calif.)
Briefly: Bcl-2 fluorescence polarization (FP) competitive binding assay with Flu-Bak-BH3 peptide. The settings on record: read-out: IC50, inhibition of Bak BH3 peptide binding to Bcl-2, 290 nM tracer, 270 nM Bcl-2 protein.

The next series concerns Bcl-2/Bcl-XL. The note with it: reported by Tzung et al.; read-out: IC50, inhibitor of Bcl-2/Bcl-XL; cited from earlier work.
Series [1] can be described thus: Solubility in DMSO or chloroform. In kind it is physicochemical. As for the experimental part:
Compound 5. FABMS 613.2 (M+H)^+. Insoluble in either DMSO or chloroform.
Subsequently ^1H NMR spectra for the five active compounds were performed. The ^1H NMR spectrum for compound 5 is not determined, because it is insoluble in either DMSO or chloroform. The ^1H NMR spectra for compounds 6, 7, 8 and 11 are consistent with their chemical structures.

T1 sequence (P10415 1-205 limits assumed): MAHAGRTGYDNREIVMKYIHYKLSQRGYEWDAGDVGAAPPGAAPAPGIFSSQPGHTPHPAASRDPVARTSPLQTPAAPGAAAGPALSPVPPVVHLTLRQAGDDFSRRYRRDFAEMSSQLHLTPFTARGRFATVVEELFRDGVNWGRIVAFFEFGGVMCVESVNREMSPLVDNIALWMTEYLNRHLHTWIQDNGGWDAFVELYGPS

In the case of `Brc1cccc[n+]1-c1ccc2cc(-[n+]3ccccc3Br)ccc2c1` [Compound 10], the IC50 with HL-60 cells was ≥ 50000 nM.
For `Nc1nc(-c2ccccc2)nc2c1[n+]([O-])c1ccccc1[n+]2[O-]` [Compound 7], the IC50 at GST-fused Bcl-2 protein stood at 1600 nM.
As to antimycin A, in the series on Bcl-2/Bcl-XL, the IC50 is 2000 nM.
A word on the melting point: it is the temperature, or range, at which the solid turns liquid. Consider `COc1ccc2c(c1)CCc1cc(OC)ccc1[N+]([O-])=[N+]2[O-]` [Compound 6a, 2,9-Dimethoxy-11,12-dihydrodibenzo [c,g] [1,2] diazocine-5,6-dioxide], for which the melting point was in the range of 136 to 138 °C.
On to `O=C1c2cc(Br)ccc2-c2ccc3c4ccc5c6c(ccc(c7ccc1c2c73)c64)C(=O)c1cc(Br)ccc1-5` [Compound 5], for which the solubility entry is given as “Insoluble” in series [1] and “insoluble” in series [1] (listed as compound 5).
